Assay results reported in patent publication US11407748B2, “Substituted pyrido[1,2-a]pyrimidines and pyrazino[1,2-a]pyrimidines for enhancing AMPA receptor function” (Takeda Pharmaceutical Company Limited, priority 2017, dated 2022).

Biological target: T1, hGluR1 flip (Homo sapiens, UniProt P42261)
T1 construct: expressed in transfected cells; host or cells: CHO-K1
Assay: AMPA receptor function-enhancing activity using calcium influx as index
Type: cell-based
Settings: test compound 30 μM with 3 mM glutamic acid; CHO-K1/GluR1 flip/stargazin-expressing cells; 100% = 3 mM glutamic acid + 300 μM cyclothiazide, 0% = 3 mM glutamic acid alone
From the text: Experimental Example 1 Measurement Method of AMPA Receptor Function-Enhancing Activity of Compound Using Calcium Influx as Index
(1) Construction of Expression Gene
Human GluR^1 flip cDNA was amplified by PCR method using forward primer […] (SEQ ID NO: 1) and reverse primer […] (SEQ ID NO: 2) artificially synthesized using human brain-derived cDNA (BD Bioscience) as a template. The amplified product was digested with restriction enzymes EcoRI, NotI (TAKARA SHUZO CO. LTD.) and incorporated into the same site of pcDNA3.1 (+) (Invitrogen) to construct pcDNA3.1(+)/human GluR1 flip gene. Human stargazin cDNA was amplified by PCR method using forward primer […] (SEQ ID NO: 3) and reverse primer […] (SEQ ID NO: 4) artificially synthesized using human hippocampus cDNA as a template. The amplified product was digested with restriction enzymes XhoI, BamHI (TAKARA SHUZO CO. LTD.) and incorporated into the same site of pcDNA3.1(−) (Invitrogen) to construct pcDNA3.1 Zeo(−)/human stargazing gene.
(2) Construction of GluR1 Flip/Stargazin Expressing Cell
CHO-K1 cells passaged in a culture medium (Ham's F12 medium (Invitrogen) added with 10% inactivated fetal bovine serum (Morgate) and penicillin, streptomycin (Invitrogen)) were detached using 0.05% trypsin and 0.53 mM EDTA (Invitrogen) diluted with D-PBS(−). The detached cells were suspended in a culture medium, and recovered by centrifugation at 1,000 rpm. The recovered cells were re-suspended in D-PBS(−) and added into 0.4 cm electroporation cuvette (BioRad). pcDNA3.1(+)/human GluR1 flip gene (5 μg) and pcDNA3.1 Zeo(−)/human stargazin gene (15 μg) were added, and introduced into CHO-K1 cells under the conditions of 950 μFd, […] and using Gene Pulser II (BioRad). The introduced cells were cultured overnight in a culture medium. The next day, using a selection medium (culture medium added with zeocin (Invitrogen) at 250 μg/mL), the cells were plated in a 96 well plate at 250 cells/well. The clones showing drug resistance were selected, and GluR1 flip/stargazin expression clones were selected by an assay method shown below using calcium influx as an index.
(3) Measurement Method of AMPA Receptor Function-Enhancing Activity of Compound, Using Calcium Influx as an Index
CHO-K1/GluR1 flip/stargazin-expressing cells were plated on a 384 well black bottom transparent plate, and cultured for 2 days in a CO2 incubator (SANYO ELECTRIC Co. Ltd.) at 37° C. The medium of the cell plate was removed. A calcium indicator (Calcium5 Assay Kit, Molecular Devices) was diluted with an assay buffer (HESS (Thermo Fisher Scientific), 0.1% BSA (Merck Millipoer) and 10 mM HEPES (Thermo Fisher Scientific)), and 1.25 mM probenecid (Dojindo Laboratories) was added thereto. The mixture prepared above was added at 30 μL/well (100 μL/well in case of 96 wells) to the well, and the well was left standing in 37° C., CO2 incubator for 1 hr. The cell plate was set in CellLux (PerkinElmer), a mixture (15 μL) (50 μL/well in case of 96 wells) of 9 mM glutamic acid (final concentration 3 mM) diluted with an assay buffer and a test compound (test compound concentration 30 μM) was added thereto, and variation in the amount of fluorescence was measured for 3 min. The variation of fluorescence level of a well added with final concentration 3 mM of glutamic acid and 300 μM cyclothiazide (TOCRIS) was defined as 100%, the variation of fluorescence level of a well added with final concentration 3 mM of glutamic acid alone was defined as 0%, and the activity of the compound was calculated by the following formula. activity (%)=(X−C)/(T−C)×100 • T: variation of fluorescence level of well added with final concentration 3 mM of glutamic acid and 300 μM cyclothiazide • C: variation of fluorescence level of well added with final concentration 3 mM of glutamic acid alone • X: variation of fluorescence level of well added with test compound

T1 sequence (P42261 19-906 isoform P42261-2 limits assumed): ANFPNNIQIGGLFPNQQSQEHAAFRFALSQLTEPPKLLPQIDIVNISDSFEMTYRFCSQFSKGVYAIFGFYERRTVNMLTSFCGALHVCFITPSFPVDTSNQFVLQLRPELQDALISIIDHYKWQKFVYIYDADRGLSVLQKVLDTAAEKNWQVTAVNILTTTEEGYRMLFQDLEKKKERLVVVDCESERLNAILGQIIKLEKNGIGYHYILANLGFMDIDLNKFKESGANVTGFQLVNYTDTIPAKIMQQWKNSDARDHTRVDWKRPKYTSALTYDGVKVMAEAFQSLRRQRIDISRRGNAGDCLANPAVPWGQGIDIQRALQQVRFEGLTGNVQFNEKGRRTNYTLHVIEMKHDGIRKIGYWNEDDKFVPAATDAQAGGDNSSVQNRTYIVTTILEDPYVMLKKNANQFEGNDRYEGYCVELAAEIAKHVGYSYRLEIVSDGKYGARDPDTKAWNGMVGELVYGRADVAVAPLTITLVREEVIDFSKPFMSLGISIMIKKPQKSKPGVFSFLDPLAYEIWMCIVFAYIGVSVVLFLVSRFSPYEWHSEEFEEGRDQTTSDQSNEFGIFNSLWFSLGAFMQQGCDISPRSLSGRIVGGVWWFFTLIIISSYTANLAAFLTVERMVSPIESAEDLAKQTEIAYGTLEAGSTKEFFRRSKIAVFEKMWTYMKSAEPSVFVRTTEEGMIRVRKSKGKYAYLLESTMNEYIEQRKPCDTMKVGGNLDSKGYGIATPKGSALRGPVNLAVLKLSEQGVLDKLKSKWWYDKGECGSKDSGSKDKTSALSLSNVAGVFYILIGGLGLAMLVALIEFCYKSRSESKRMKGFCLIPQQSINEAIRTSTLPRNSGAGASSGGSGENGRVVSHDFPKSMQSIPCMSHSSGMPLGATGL
T1 sequence (Q9Y698 whole entry partner): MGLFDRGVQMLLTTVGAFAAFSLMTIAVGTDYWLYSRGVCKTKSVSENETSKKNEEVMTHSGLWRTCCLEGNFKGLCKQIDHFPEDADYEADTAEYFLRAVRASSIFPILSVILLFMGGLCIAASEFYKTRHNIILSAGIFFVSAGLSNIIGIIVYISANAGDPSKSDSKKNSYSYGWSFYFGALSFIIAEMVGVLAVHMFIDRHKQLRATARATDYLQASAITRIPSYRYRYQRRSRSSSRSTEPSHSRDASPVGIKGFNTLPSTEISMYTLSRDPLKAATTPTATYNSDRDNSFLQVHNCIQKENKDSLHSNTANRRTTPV

Structure (SMILES) | activation at 30 µM [%]
O=C(NCC(F)F)c1ccc(-c2cccn3c(=O)cc(C(F)(F)F)nc23)cc1 [Example 26, N-(2,2-difluoroethyl)-4-(4-oxo-2-(trifluoromethyl)-4H-pyrido[1,2-a]pyrimidin-9-yl)benzamide] | 74.9
CC1(O)CCN(C(=O)c2ccc(-c3cccn4c(=O)cc(C(F)(F)F)nc34)cc2)C1 (stereo not shown) [Example 28, 9-(4-((3-hydroxy-3-methylpyrrolidin-1-yl)carbonyl)phenyl)-2-(trifluoromethyl)-4H-pyrido[1,2-a]pyrimidin-4-one] | 79.3
O=C(c1ccc(-c2cccn3c(=O)cc(C(F)(F)F)nc23)cc1)N1CCC(O)(C(F)(F)F)CC1 [Example 33, 9-(4-((4-hydroxy-4-(trifluoromethyl)piperidin-1-yl)carbonyl)phenyl)-2-(trifluoromethyl)-4H-pyrido[1,2-a]pyrimidin-4-one] | 79.4
O=C(NCC(F)(F)F)c1ccc(-c2cccn3c(=O)c(Cl)c(C(F)(F)F)nc23)cc1 [Example 35, 4-(3-chloro-4-oxo-2-(trifluoromethyl)-4H-pyrido[1,2-a]pyrimidin-9-yl)-N-(2,2,2-trifluoroethyl)benzamide] | 79.8
O=C(c1ccc(-c2cccn3c(=O)cc(C(F)(F)F)nc23)cc1)N1CCCC(O)(C(F)(F)F)C1 (stereo not shown) [Example 36, 9-(4-((3-hydroxy-3-(trifluoromethyl)piperidin-1-yl)carbonyl)phenyl)-2-(trifluoromethyl)-4H-pyrido[1,2-a]pyrimidin-4-one] | 101
Cc1c(C(F)(F)F)nc2c(-c3ccc(C(=O)N4CCOCC4)cc3)cccn2c1=O [Example 37, 3-methyl-9-(4-(morpholin-4-ylcarbonyl)phenyl)-2-(trifluoromethyl)-4H-pyrido[1,2-a]pyrimidin-4-one] | 74.9
N#CC1CCCN(C(=O)c2ccc(-c3cccn4c(=O)c(Cl)c(C(F)(F)F)nc34)cc2)C1 (stereo not shown) [Example 38, 1-(4-(3-chloro-4-oxo-2-(trifluoromethyl)-4H-pyrido[1,2-a]pyrimidin-9-yl)benzoyl)piperidine-3-carbonitrile] | 99.3
CN(CCC#N)C(=O)c1ccc(-c2cccn3c(=O)c(Cl)c(C(F)(F)F)nc23)cc1 [Example 39, 4-(3-chloro-4-oxo-2-(trifluoromethyl)-4H-pyrido[1,2-a]pyrimidin-9-yl)-N-(2-cyanoethyl)-N-methylbenzamide] | 85.9
O=C(NCC(F)F)c1ccc(-c2cccn3c(=O)cc(C(F)(F)F)nc23)cc1F [Example 42] | 83.6
O=C(NCC(F)(F)F)c1ccc(-c2cccn3c(=O)cc(C(F)(F)F)nc23)cc1F [Example 43, 2-fluoro-4-(4-oxo-2-(trifluoromethyl)-4H-pyrido[1,2-a]pyrimidin-9-yl)-N-(2,2,2-trifluoroethyl)benzamide] | 84.1
O=C(c1ccc(-c2cccn3c(=O)cc(C(F)(F)F)nc23)cc1F)N1CCOCC1 [Example 44, 9-(3-fluoro-4-(morpholin-4-ylcarbonyl)phenyl)-2-(trifluoromethyl)-4H-pyrido[1,2-a]pyrimidin-4-one] | 73.8
Cc1c(C(F)(F)F)nc2c(-c3ccc(C(=O)N4CCOCC4)c(F)c3)cccn2c1=O [Example 45, 9-(3-fluoro-4-(morpholin-4-ylcarbonyl)phenyl)-3-methyl-2-(trifluoromethyl)-4H-pyrido[1,2-a]pyrimidin-4-one] | 82.6
O=C(c1ccc(-c2cccn3c(=O)c(Br)c(C(F)(F)F)nc23)cc1F)N1CCOCC1 [Example 46, 3-bromo-9-(3-fluoro-4-(morpholin-4-ylcarbonyl)phenyl)-2-(trifluoromethyl)-4H-pyrido[1,2-a]pyrimidin-4-one] | 77.3
C[C@@H]1CN(C(=O)c2ccc(-c3cccn4c(=O)c(Br)c(C(F)(F)F)nc34)cc2)CCO1 [Example 49, 3-bromo-9-(4-(((2R)-2-methylmorpholin-4-yl)carbonyl)phenyl)-2-(trifluoromethyl)-4H-pyrido[1,2-a]pyrimidin-4-one] | 71.6
O=C(N[C@H]1CCOC1)c1ccc(-c2cccn3c(=O)c(Br)c(C(F)(F)F)nc23)cc1 [Example 55, 4-(3-bromo-4-oxo-2-(trifluoromethyl)-4H-pyrido[1,2-a]pyrimidin-9-yl)-N-((3S)-tetrahydrofuran-3-yl)benzamide] | 75.1
O=C(NC1CCOCC1)c1ccc(-c2cccn3c(=O)c(Br)c(C(F)(F)F)nc23)cc1 [Example 57, 4-(3-bromo-4-oxo-2-(trifluoromethyl)-4H-pyrido[1,2-a]pyrimidin-9-yl)-N-(tetrahydro-2H-pyran-4-yl)benzamide] | 78.7
O=C(c1ccc(-c2cccn3c(=O)c(Br)c(C(F)(F)F)nc23)cc1)N1CCC1 [Example 61, 9-(4-(azetidin-1-ylcarbonyl)phenyl)-3-bromo-2-(trifluoromethyl)-4H-pyrido[1,2-a]pyrimidin-4-one] | 77.1
O=C(c1ccc(-c2cccn3c(=O)c(Br)c(C(F)(F)F)nc23)cc1)N1CCCC1 [Example 62, 3-bromo-9-(4-(pyrrolidin-1-ylcarbonyl)phenyl)-2-(trifluoromethyl)-4H-pyrido[1,2-a]pyrimidin-4-one] | 76.9
O=C(c1ccc(-c2cccn3c(=O)c(Br)c(C(F)(F)F)nc23)cc1)N1CCc2cccnc21 [Example 65, 3-bromo-9-(4-(2,3-dihydro-1H-pyrrolo[2,3-b]pyridin-1-ylcarbonyl)phenyl)-2-(trifluoromethyl)-4H-pyrido[1,2-a]pyrimidin-4-one] | 74.6
Cc1c(C(F)(F)F)nc2c(-c3ccc(C(=O)N4CCO[C@@H](C)C4)cc3)cccn2c1=O [Example 67, 3-methyl-9-(4-(((2S)2-methylmorpholin-4-yl)carbonyl)phenyl)-2-(trifluoromethyl)-4H-pyrido[1,2-a]pyrimidin-4-one] | 73.5
Cc1c(C(F)(F)F)nc2c(-c3ccc(C(=O)N4CCOC(F)(F)C4)cc3)cccn2c1=O [Example 68, 9-(4-((2,2-difluoromorpholin-4-yl)carbonyl)phenyl)-3-methyl-2-(trifluoromethyl)-4H-pyrido[1,2-a]pyrimidin-4-one] | 88.4
Cc1c(C(F)(F)F)nc2c(-c3ccc(C(=O)N4CCCOCC4)cc3)cccn2c1=O [Example 69, 3-methyl-9-(4-(1,4-oxazepan-4-ylcarbonyl)phenyl)-2-(trifluoromethyl)-4H-pyrido[1,2-a]pyrimidin-4-one] | 79.9
O=C(NCC1CC1)c1ccc(-c2cccn3c(=O)c(Br)c(C(F)(F)F)nc23)cc1F [Example 70, 4-(3-bromo-4-oxo-2-(trifluoromethyl)-4H-pyrido[1,2-a]pyrimidin-9-yl)-N-(cyclopropylmethyl)-2-fluorobenzamide] | 71.4
O=C(c1ccc(-c2cccn3c(=O)c(Br)c(C(F)(F)F)nc23)cc1F)N1CCOC(F)(F)C1 [Example 71, 3-bromo-9-(4-((2,2-difluoromorpholin-4-yl)carbonyl)-3-f1uorophenyl)-2-(trifluoromethyl)-4H-pyrido[1,2-a]pyrimidin-4-one] | 72.3
COCCNC(=O)c1ccc(-c2cccn3c(=O)c(Br)c(C(F)(F)F)nc23)cc1F [Example 72, 4-(3-bromo-4-oxo-2-(trifluoromethyl)-4H-pyrido[1,2-a]pyrimidin-9-yl)-2-fluoro-N-(2-methoxyethyl)benzamide] | 76.4
